Data taken from US20250326725A1, “PI4-Kinase Inhibitors and Methods of Using the Same” (The Board of Trustees of the Leland Stanford Junior …, priority 2019, published 2025).
Where “and” joins values, the source holds several entries; their conditions need not be identical. Equal values may be shown once.

Tests used:
lung cancer cell lines [1] = experiment: Cell proliferation in monolayer culture (WST-1); format: cell-based, human; details: panel of lung cancer cell lines
Protocol: (§1) Human lung cancer cells (A549, H1299, H460, H23, H2122, and H3122) were cultured in RPMI 1640 containing 10% FBS. Cells were maintained at 37° C. in an incubator with a humidified atmosphere containing 5% CO2.
(§2) To assess the anti-cancer activity of exemplary PI4K antagonists, a panel of lung cancer cell lines annotated for the presence or absence of PI4K amplifications were treated with PI4K inhibitors (IN-9, TN-10, or compound B) that have greater than 1000-fold selectivity […] PI4KIIIβ over class I and class III PI3K family members. […] IC50 values were even lower with the presence of PI4K amplifications.
(§3) PI4KIIIβ is a target in human cancers, including lung adenocarcinoma. (FIG. 1A). PI4P concentrations in H2122 cells (dots) treated in triplicate (dots) with Compound B or vehicle dimethyl sulfoxide (DMS). (FIG. 1B) Relative densities of PI4-kinase-amplified (red) and -diploid (black) human lung adenocarcinoma cell lines determined by WST-1 assays after 5 days of Compound B treatment. Results expressed relative to the lowest dose, which was set at 100%. (FIG. 1B, right panel) Half maximal inhibitory (IC50) concentrations of compound B determined from FIG. 1B, left panel. (FIG. 1C) Migrated and invaded 1-23 human lung adenocarcinoma cells in Transwell chambers were photographed (images) and counted (bar graphs) after treatment with compound B. Results expressed relative to DMSO-treated cells, which were set at 1.0. (FIG. 1C, right panel). Colonies formed by H2122 human lung cancer cells in soft agarose (FIG. 1D) and on plastic (FIG. 1E) were photographed (images) and counted (bar graphs) after 7 days of treatment with the indicated doses of compound B or vehicle DMSO (0 M). Results expressed relative to DMSO control, which were set at 1.0. PI4-kinase inhibition leads to selective cytotoxicity for cancer cells (FIG. 1F).

lung cancer cell lines [2] = experiment: PI4P levels in lung cancer cell lines; format: cell-based, human; details: panel of lung cancer cell lines
Protocol: as §1, §2, §3

lung cancer cell lines [3] = experiment: Colony formation in soft agar and on plastic; format: cell-based, human; details: panel of lung cancer cell lines
Protocol: as §1, §2, §3

lung cancer cell lines [4] = experiment: Migration and invasion in Boyden chambers; format: cell-based, human; details: panel of lung cancer cell lines
Protocol: as §1, §2, §3

[5] = Cell toxicity (CC50) in HPV assay
[6] = test system: Human HPV (Papillomaviridae); experiment: Human HPV antiviral assay (EC50); format: cell-based, human papilloma virus; details: Human papillomavirus, read-out: Human HPV (Papillomaviridae) EC50
[7] = Cell toxicity (CC50) in BK virus assay
[8] = test system: BK virus (Polyomaviridae); experiment: BK virus antiviral assay (EC50); format: cell-based; details: Betapolyomavirus hominis
[9] = test system: JC virus (Polyomaviridae); experiment: JC virus antiviral assay (EC50); format: cell-based; details: JC polyomavirus
[10] = Cell toxicity (CC50) in JC virus assay
[11] = Cell toxicity (CC50) in HRV assay; details: human, HRV CC50
[12] = Cell toxicity (CC50) in EV68 assay; details: EV68 CC50
PI4KIIIalpha = biological target: T1, PI4KIIIalpha (Homo sapiens, UniProt P42356); experiment: PI-kinase assay, PI4KIIIalpha (Table 4); format: biochemical
T1 construct: made in house; host or cells: COS-7 cells, transient transfection, anti-HA immunoprecipitate on protein G Sepharose beads
T1 sequence (P42356 whole entry): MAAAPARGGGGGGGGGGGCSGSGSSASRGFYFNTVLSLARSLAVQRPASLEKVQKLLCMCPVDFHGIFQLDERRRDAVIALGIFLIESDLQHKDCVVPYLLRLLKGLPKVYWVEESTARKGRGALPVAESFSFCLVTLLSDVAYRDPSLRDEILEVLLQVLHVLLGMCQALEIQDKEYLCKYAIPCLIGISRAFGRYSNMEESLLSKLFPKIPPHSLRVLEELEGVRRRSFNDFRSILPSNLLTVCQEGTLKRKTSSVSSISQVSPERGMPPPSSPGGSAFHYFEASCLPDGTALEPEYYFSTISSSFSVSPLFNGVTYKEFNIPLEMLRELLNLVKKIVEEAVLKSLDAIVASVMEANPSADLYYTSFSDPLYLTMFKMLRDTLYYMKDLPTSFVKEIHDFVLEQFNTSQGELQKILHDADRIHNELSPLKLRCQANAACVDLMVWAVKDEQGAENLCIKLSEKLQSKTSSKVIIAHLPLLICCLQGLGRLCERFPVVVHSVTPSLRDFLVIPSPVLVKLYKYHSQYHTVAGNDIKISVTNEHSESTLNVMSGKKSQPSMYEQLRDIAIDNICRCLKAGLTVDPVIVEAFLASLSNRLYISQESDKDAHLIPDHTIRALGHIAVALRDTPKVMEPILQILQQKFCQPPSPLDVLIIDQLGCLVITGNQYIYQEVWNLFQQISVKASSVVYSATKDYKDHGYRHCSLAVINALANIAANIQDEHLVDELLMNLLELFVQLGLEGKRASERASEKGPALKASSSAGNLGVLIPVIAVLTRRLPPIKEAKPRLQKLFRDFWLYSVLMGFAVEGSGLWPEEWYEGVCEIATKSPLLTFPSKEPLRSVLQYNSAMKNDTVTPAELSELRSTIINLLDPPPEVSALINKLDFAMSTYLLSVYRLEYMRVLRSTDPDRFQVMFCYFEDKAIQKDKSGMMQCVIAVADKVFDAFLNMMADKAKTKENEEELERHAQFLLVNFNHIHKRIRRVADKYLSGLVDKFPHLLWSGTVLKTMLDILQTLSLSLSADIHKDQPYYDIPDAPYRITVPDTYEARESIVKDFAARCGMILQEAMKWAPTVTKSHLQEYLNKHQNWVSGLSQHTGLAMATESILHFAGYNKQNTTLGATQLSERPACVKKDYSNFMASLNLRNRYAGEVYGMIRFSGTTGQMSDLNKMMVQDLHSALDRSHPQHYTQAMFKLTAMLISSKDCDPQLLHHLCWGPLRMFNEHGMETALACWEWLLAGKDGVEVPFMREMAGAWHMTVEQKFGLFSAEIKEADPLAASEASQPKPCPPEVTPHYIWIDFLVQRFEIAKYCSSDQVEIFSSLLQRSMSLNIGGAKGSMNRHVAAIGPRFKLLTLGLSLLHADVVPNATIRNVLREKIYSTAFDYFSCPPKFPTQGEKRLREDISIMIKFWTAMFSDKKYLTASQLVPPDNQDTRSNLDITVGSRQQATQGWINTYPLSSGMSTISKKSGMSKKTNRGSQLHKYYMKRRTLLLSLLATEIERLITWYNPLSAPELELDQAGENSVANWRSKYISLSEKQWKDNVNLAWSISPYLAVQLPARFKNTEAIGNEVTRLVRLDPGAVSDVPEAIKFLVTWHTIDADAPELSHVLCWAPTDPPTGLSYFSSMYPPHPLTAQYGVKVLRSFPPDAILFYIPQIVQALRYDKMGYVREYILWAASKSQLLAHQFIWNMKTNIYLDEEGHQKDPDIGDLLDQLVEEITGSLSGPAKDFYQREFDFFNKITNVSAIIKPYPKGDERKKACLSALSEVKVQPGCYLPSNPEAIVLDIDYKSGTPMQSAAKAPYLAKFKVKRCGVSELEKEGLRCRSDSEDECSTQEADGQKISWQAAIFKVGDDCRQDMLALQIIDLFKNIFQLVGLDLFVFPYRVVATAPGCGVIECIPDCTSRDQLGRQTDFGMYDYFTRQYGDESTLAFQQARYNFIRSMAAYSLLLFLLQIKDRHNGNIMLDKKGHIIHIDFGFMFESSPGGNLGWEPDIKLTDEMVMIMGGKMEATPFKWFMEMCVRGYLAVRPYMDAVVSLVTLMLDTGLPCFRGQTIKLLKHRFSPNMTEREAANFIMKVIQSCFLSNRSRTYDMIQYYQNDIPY
Protocol: (§4) PI-kinase assay: Compounds are tested in C.1.1. PT kinase assays as described by Shokat et al., “A membrane capture assay for lipid kinase activity.” Nat. Protoc. 2007; 2(10):2459-66.
(§5) General methods of materials: In the assays described here, p110α-p85 complex and p110γ were acquired from Millipore. Assays were performed with La-phosphatidylinositol (Avanti) as described in Knight et al. Nat Protoc. 2007; 2 (10):2459-66. Inhibitor series were prepared 10% DMSO as 5× stocks for the assay. Assays of HsVps34 were performed as described in Knight et al, except that the final assay buffer composition used was changed to 20 mM HEPES 7.5, 100 mM NaCl, 3 mM MgCl, 1 mg/mL PI and 44 nM hvps34 was used in the assay. […] COS-7 cells were cultured in 10 cm dishes and transfected at 70% confluence with 10 μg of plasmid DNA (HA-tagged bovine PI4KIIIβ. HA-tagged human PI4KIIIα) using Lipofectamine 2000 and 5 ml Opti-MEM following the manufacturer's instructions. After 5 hours the transfection medium was replaced with 10 ml complete DMEM. 36 hrs post transfection, cells were washed once with 5 ml PBS (pH 7.4) and lysed in 1 ml of lysis buffer (1) on ice. Lysates were collected by scraping and after 15 min they were centrifuged at 13.000 rpm for 10 min. To the lysates was added 200 gi of protein G Sepharose 4 fast flow beads that were prewashed with PBS and lysis buffer and 2 sg of anti-HA antibody. The tubes were then incubated overnight at 4 degrees C. in a tube rotator. The Sepharose beads in the lysate were washed twice with 150 mM NaCl in RIPA buffer, twice with RIPA buffer and once with kinase buffer (50 mM Tris/HCl, pH 7.5, 20 mM MgCl2, 1 mM EFTA, 1 mM PtdIns, 0.4% Triton X-100, 0.5 mg/mL BSA) and finally the beads were resuspended in 200 μL kinase buffer. Kinase reactions were run in a mixture of 45 μL of PI buffer (1 mM P1 in kinase buffer), 10 μL of immunoprecipitated beads, 2 µL of inhibitors (dissolved and diluted in DMSO) or DMSO and 5 μL of [γ-^32P]-ATP (1 mM and 2 μCi/tube). The immunoprecipitates in PI buffer were pre-incubated with the drugs for 20 min prior the initiation of kinase reaction by adding ATP and the reactions were carried out for 30 min in 15 ml polyproplyene tubes. Reactions were terminated by addition of 3 ml of CHCl3:CH3OH:HCl (200:100:0.75) followed by 0.6 ml of 0.61N HCl to induce phase separation. The mixtures were vortexed, centrifuged at 2000 rpm for 2 min and the upper phase was discarded. To the lower phase was added 1.5 ml of CHCl3:CH3OH:0.6N HCl (3:48:47) and the mixture vortexed and centrifuged at 2000 rpm for 2 ruin. The lower phase was then transferred to counting vials and evaporated. Samples were counted in a scintillation beta counter after adding 5 ml of Instafluor (Perkin-Elmer).
(§6) Selected compounds of Tables 1-3 were prepared and tested for inhibition activity in a variety of kinase assays.

[13] = Caco-2 permeability assay; format: in vitro ADME; details: human, read-out: Caco2 Papp × 1e−6 cm/s
Protocol: Compounds of interest were tested in a variety of cell-based assays for antiviral activity.

EV71 = EV71 antiviral assay (EC50); format: cell-based, Enterovirus 71; details: Enterovirus A, EV71
[14] = Microsomal stability, human liver microsomes; format: in vitro ADME; details: for half-life: read-out: HLM/MLM (t ½ min): HLM
[15] = Microsomal stability, mouse liver microsomes; format: in vitro ADME
PI4KIIIbeta = biological target: T2, PI4KIIIbeta (Bos taurus, UniProt O02810); experiment: PI-kinase assay, PI4KIIIbeta (Table 4); format: biochemical, bovine
T2 construct: made in house; host or cells: COS-7 cells, transient transfection, anti-HA immunoprecipitate on protein G Sepharose beads
T2 sequence (O02810 whole entry): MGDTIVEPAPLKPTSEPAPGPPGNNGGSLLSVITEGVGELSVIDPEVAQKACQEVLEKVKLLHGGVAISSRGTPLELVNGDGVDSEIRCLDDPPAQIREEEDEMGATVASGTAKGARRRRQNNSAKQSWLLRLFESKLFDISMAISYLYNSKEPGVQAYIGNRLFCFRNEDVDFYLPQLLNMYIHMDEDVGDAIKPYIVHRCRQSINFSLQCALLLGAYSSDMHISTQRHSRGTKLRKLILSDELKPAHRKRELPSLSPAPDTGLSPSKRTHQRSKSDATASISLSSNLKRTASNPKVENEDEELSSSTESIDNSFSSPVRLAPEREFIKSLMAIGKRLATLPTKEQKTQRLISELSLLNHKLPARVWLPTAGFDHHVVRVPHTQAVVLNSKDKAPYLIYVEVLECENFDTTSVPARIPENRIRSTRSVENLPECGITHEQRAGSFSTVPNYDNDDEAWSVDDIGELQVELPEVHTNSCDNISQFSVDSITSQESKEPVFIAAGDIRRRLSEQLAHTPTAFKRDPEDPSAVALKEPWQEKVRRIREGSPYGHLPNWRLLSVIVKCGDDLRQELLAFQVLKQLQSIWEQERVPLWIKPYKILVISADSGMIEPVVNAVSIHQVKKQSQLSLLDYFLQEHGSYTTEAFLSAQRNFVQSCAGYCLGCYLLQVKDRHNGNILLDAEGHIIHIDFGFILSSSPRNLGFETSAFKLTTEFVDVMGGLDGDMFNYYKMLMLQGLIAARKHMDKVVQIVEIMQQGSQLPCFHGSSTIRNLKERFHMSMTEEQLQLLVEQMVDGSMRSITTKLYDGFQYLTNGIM
Protocol: as §4, §5, §6

[16] = Cell toxicity (CC50) in EV71 assay; details: EV71 CC50
cells (EV71 assay) = experiment: Cell toxicity (CC50) in EV71 assay
HCV = experiment: Anti-HCV assay (EC50); format: cell-based; details: Hepatitis C virus, read-out: HCV EC50
Protocol: Anti-HCV assay: Anti-HCV assays are performed as described by Cho et al. “Identification of a class of HCV inhibitors directed against the nonstructural protein NS4B.” Sci. Transl. Med. 2011; 2(15):15ra6.

HRV = experiment: Rhinovirus antiviral assay (EC50); format: cell-based; details: Human rhinovirus sp.
EV68 = EV68 antiviral assay (EC50); format: cell-based
HeLa S3 cells = experiment: Cell toxicity (CC50) in HRV assay; details: human
cells (EV68 assay) = experiment: Cell toxicity (CC50) in EV68 assay
[17] = read-out: HLM/MLM (t ½ min): MLM
[18] = with ritonavir (concentration not stated), + Ritonavir, read-out: HLM/MLM (t ½ min) + Ritonavir: MLM

| SMILES | CC50 [7] [µM] | EC50 [8] [µM] | EC50 [9] [µM] | CC50 [10] [µM] | CC50 [11] [µM] | CC50 [12] [µM] | IC50 (PI4KIIIalpha) [µM] | EC50 (EV71) [µM] | IC50 (PI4KIIIbeta) [µM] | CC50 [16] [µM] | EC50 (HRV) [µM] | EC50 (EV68) | other results |
| --- | --- | --- | --- | --- | --- | --- | --- | --- | --- | --- | --- | --- | --- |
| COc1ccc(-c2sc(NC(=O)C3CCCC3)nc2C)cc1S(=O)(=O)Nc1ccc(O)cc1 [PI4KIIIbeta-IN-9] |  |  |  |  |  |  |  |  |  |  |  |  | cell proliferation in monolayer culture (lung cancer cell lines [1]): reduced cell proliferation in monolayer culture; PI4P levels (lung cancer cell lines [2]): decreased PI4P levels in a dose-dependent fashion; colony formation in soft agar and on plastic (lung cancer cell lines [3]): reduced; migration and invasion in Boyden chambers (lung cancer cell lines [4]): reduced |
| Nc1nc2c(ncn2CCOCP(=O)(O)O)c(=O)[nH]1 [PC2, 9-[2-(phosphono-methoxy)ethyl]guanine, reference compound] |  |  |  |  |  |  |  |  |  |  |  |  | CC50 [5]: > 150 µM; EC50 [6]: 2.8 µM |
| Nc1ccn(C[C@@H](CO)OCP(=O)(O)O)c(=O)n1 [PC1, cidofovir, reference compound] | > 100 | 0.31 | 29.5 | > 150 |  |  |  |  |  |  |  |  |  |
| COc1ccc(-c2sc(NC(C)(C)c3ccccc3)nc2C)cc1S(=O)(=O)NC1CCN(C(C)=O)CC1 [Compound S-42] |  |  | 8.1 | > 150 | 100 | 100 | > 10 | 0.0003 | < 0.1 | 103 | 0.0009 | 0.0019 µM and 0.0016 µM | Papp [13]: 14 ×10⁻⁶ cm/s; HLM/MLM (t ½ min) + Ritonavir: HLM [14]: 159 min; half-life [14]: 10 min; half-life [15, 17]: 14 min; half-life [15, 18]: 82 min; CC50 (cells (EV71 assay)): 100 µM; EC50 (HCV): 0.0007 µM |
| COc1ccc(-c2sc(NC(C)(C)C3CCOCC3)nc2C)cc1S(=O)(=O)Nc1c(C)cccc1F [Compound C] | > 100 | 0.07 |  |  |  |  | > 10 |  | < 0.1 |  |  |  |  |
| COc1ccc(-c2sc(NC(C)(C)c3ccccn3)nc2C)cc1S(=O)(=O)Nc1c(C)cccc1F [Compound S-45] |  |  | 4.7 | > 150 | 66.2 | 73.2 | > 10 | 0.0003 | < 0.1 | 87.3 | 0.0005 | 0.002 µM and 0.0029 µM | CC50 (HeLa S3 cells): 52 µM; CC50 (cells (EV68 assay)): 38 µM; CC50 [5]: 77 µM; HLM/MLM (t ½ min) + Ritonavir: HLM [14]: 159 min; half-life [14]: 14 min; EC50 [6]: 5.3 µM; half-life [15, 17]: 10 min; half-life [15, 18]: 67 min; CC50 (cells (EV71 assay)): 77 µM; EC50 (HCV): 0.0004 µM |
| COc1ccc(-c2sc(NC(C)C3CCOCC3)nc2C)cc1S(=O)(=O)Nc1c(C)cccc1F (centres unmarked) [Compound S-76] | 27 | < 0.0006 |  |  | 9.3 | 9.4 |  | 0.0018 |  | 36 | 0.0019 | 0.005 µM |  |
